Measurements published in patent US12139481B2, “Compositions comprising macrocycle derivatives incorporating bridged macrocycles and methods of producing and using same” (Southwestern Oklahoma State University, priority 2015, dated 2024).
Several values for one entry are separate records, joined by “and”; a condition that tells them apart may be missing. Equal entries are not always repeated. Where two headings read alike, the source gives them in different places.

Key:
[1] = tested on: methicillin-resistant S. aureus ATCC 33591 (MRS); test: Antibacterial broth dilution assay against MRSA (modified CLSI); type: cell-based, Staphylococcus aureus; conditions: for MRSa IC50 / IC50: in vitro; for IC50: converted with molecular weight; for X more potent than ciprofloxacen: molar IC50 ratio versus ciprofloxacen
Method in brief: (§1)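 Modified CLSI broth microdilution with OD monitoring before and after incubation at 35 °C: Candida in RPMI 1640/MOPS pH 6.0, 1.5×10^3 CFU/ml, 46-50 h; Staphylococcus in cation-adjusted Mueller-Hinton pH 7.3, 5.0×10^5 CFU/ml, 16-20 h. IC50 from curve fit; MIC is the lowest concentration with no growth; MFC/MBC from subculture.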

[2] = tested on: L. donovani promastigotes; test: Antileishmanial Alamar Blue assay on promastigotes; type: cell-based, Leishmania donovani; conditions: for X more potent than Pentamidine: L. donovani, ratio of molar IC50 to Pentamidine
Method in brief: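 L. donovani promastigotes in RPMI 1640 with 10% FCS, from 3-day culture, were set at 5×10^5/mL and exposed to compound (50-3.1 μg/mL) for 48 hours at 26° C. Growth read by Alamar Blue fluorescence (ex 544/em 590 nm); IC50 from percent growth versus concentration.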

C. krusei ATCC 6258 = test: Antifungal broth dilution assay against C. krusei (modified CLSI); type: cell-based, Candida krusei; conditions: for X more potent than Amphotericin B: C. krusei, ratio of molar IC50 to amphotericin B; for C. krusei IC50 / IC50: in vitro; for IC50: read-out: C. krusei IC50 (mol/L)
Method in brief: as §1

[3] = tested on: S. mansoni newly transformed schistosomula (NTS); test: In vitro testing on Schistosoma mansoni newly transformed schistosomula (NTS), viability score; type: cell-based; conditions: NTS S. mansoni, 33 μM, 72 h
Method in brief: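 Mechanically transformed S. mansoni (Liberian strain) NTS, cultured overnight, exposed at 100 per well to compound (from 10 mM DMSO stock; ≤1% DMSO controls) at 37 °C, 5% CO2 for 72 h. Viability scored microscopically from 3 (normal activity, intact tegument) to 0 (dead, granulated).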

[4] = promastigotes, 48 hours, Alamar Blue
[5] = promastigotes, 48 hours, Alamar Blue, read-out: L. donavani IC50

Structure (SMILES) | MRSa IC50 [1] [µg/mL] | IC50 [1] [µM] | X more potent than ciprofloxacen [1] | X more potent than Pentamidine [2] | L. donovani IC50 [2, 4] [µg/mL] | IC50 [2, 5] [µM] | X more potent than Amphotericin B (C. krusei ATCC 6258) | C. krusei IC50 (C. krusei ATCC 6258) [µg/mL] | IC50 (C. krusei ATCC 6258) [µM] | IC50 ([2]; read-out: IC50 against L. donovani) [µM] | Effect at 72 h (%) [3] [%] | IC50 ([1]; HCl salt) [µM] | IC50 ([2]; promastigotes, 48 hours, Alamar Blue, HCl salt, read-out: L. donavani IC50) [µM]
c1cc(CN2CCCN3CCCN(CCCNCC3)CC2)ccc1CN1CCCN2CCCN(CCCNCC2)CC1 [SLK10, p-H2PBCyclams] | 2.500 | 4.29 | 0.05 | 0.20 | 15.50 | 26.6 | – | – | – | – | – | – | –
[Cl][Mn-2]([Cl])([Cl])[Cl].[Mn+2].c1ccc(CN2CCCN3CCCN(CCCN(Cc4ccccc4)CC3)CC2)cc1 [BME08, [Mn(Bn2PBCyclam)][MnCl4]] | 0.800 | 1.19 | 0.18 | 2 and 2.01 | 1.78 | 2.65 | 0.19 | 5.270 | 7.84 | 2.65 | – | – | –
CC(=O)[O-].F[P-](F)(F)(F)(F)F.[Ni+2].c1ccc(CN2CCCN3CCCN(CCCN(Cc4ccccc4)CC3)CC2)cc1 [DJD22, [Ni(Bn2PBCyclam)(OAc)]PF6] | 4.620 | 6.76 | 0.03 | 0.28 | 13.10 | 19.2 | 0.19 | 5.250 | 7.68 | – | – | – | –
c1ccc(CN2CCN3CCCN(CC2)CCN(Cc2ccccc2)CC3)cc1 [AW009, Bn2PBCyclen] | 1.050 | 2.68 | 0.08 | 0.10 | 21.40 | 54.5 | 0.10 | 6.170 | 15.7 | – | – | – | –
CN1CCCN2CCN(CCCN(Cc3cccc(CN4CCCN5CCN(C)CCCN(CC5)CC4)c3)CC2)CC1.Cl.Cl.Cl.Cl.Cl.Cl.Cl.Cl [TJS04, m-CB-cyclams HCl salt] | 7.050 | – | 0.03 | 0.50 | 10.37 | – | – | – | – | – | 24.32 | 7.24 | 10.7
